Literature values in patent US20180094248A1, “Necroptosis Signaling as a Therapeutic Target for Alzheimer's Disease” (Arizona Board of Regents on behalf of Arizona State …, priority 2016, published 2018).

Assays:
[1] = biological target: RIPK3 (Homo sapiens, UniProt Q9Y572); settings: Kaiser et al., 2013, J. Biol. Chem. 288:31268; cited from earlier work
[2] = biological target: T1, MLKL (Homo sapiens, UniProt Q8NB16); settings: Sun et al., 2012, Cell 148:213-27; cited from earlier work
T1 sequence (Q8NB16 1-471): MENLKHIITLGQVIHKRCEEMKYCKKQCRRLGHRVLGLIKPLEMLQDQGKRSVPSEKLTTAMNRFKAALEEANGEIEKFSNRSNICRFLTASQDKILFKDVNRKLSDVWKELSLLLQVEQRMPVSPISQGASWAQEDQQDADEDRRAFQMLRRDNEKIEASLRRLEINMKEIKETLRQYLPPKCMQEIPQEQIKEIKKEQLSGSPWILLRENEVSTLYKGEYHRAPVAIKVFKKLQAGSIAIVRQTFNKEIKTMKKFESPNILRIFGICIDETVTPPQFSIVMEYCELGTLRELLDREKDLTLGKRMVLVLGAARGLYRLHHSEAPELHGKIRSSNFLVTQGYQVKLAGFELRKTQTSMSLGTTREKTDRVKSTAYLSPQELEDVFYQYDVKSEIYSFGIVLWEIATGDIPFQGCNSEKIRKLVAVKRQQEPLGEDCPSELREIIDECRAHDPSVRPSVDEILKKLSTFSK

RIPK3, sequence (Q9Y572 whole entry): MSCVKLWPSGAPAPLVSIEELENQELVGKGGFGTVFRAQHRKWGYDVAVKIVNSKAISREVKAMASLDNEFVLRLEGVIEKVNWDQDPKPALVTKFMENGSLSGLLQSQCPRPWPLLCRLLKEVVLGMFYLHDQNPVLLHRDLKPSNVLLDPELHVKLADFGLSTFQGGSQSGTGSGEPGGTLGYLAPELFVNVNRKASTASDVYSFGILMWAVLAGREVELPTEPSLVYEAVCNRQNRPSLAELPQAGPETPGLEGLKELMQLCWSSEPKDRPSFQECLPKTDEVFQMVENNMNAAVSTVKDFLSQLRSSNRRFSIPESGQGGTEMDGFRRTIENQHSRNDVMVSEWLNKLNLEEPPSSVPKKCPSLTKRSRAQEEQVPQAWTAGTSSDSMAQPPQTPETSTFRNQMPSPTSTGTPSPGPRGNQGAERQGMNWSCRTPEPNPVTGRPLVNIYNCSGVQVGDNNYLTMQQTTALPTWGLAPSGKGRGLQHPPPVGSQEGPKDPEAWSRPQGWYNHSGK

In the case of CC(C)S(=O)(=O)c1ccc2nccc(Nc3ccc4scnc4c3)c2c1 [GSK'872, N-(6-(Isopropylsulfonyl)quinolin-4-yl)benzo[d]thiazol-5-amine], the “inhibition of RIPK3 (selectivity)” value [1] is listed as “selectively inhibits RIPK3”.

In the case of COc1nccnc1NS(=O)(=O)c1ccc(NC(=O)/C=C/c2ccc([N+](=O)[O-])s2)cc1 [necrosulfonamide, (E)-N-[4-[[(3-Methoxy-2-pyrazinyl)amino]sulfonyl]phenyl]-3-(5-nitro-2-thienyl)-2-propenamide], the “inhibition of MLKL (selectivity)” value [2] is listed as “selectively inhibits MLKL”.
